Consider 18 compounds from US12384787B2, “Fused heterocyclic compounds and their use as pest control agents” (PI INDUSTRIES LTD., priority 2019, dated 2025).

Common to all, as to format: in vivo
One test has as its system Plutella xylostella. Nature of the test: Plutella xylostella leaf dip method (cabbage leaves). The following applies: foliar, second instar larvae, 72 h after release, dead and moribund combined, compared to untreated control, read-out: Percent mortality. Here is the method: The leaf dip method was used for testing, wherein the required quantity of the compounds were weighed and dissolved in a surfactant solution, kept on a Vortex at 2000 rpm with zirconia beads for 90 min for proper mixing and then diluted with 0.01% Triton-X solution to the desired test concentration. Cabbage leaves were dipped in the solution for 10 seconds, shade dried for 20 min and then transferred to bioassay trays. A single second instar larva was released into each bioassay tray cell and the tray was covered with a lid. The bio-assay trays were kept under laboratory conditions at a temperature of 25° C. and relative humidity of 70%. Observations on dead, moribund and living larvae were recorded at 72 h after the release. Percent mortality was calculated by combining dead and moribund larvae and comparing the result to the one of the untreated control.

For another test, the system named is Myzus persicae. The experiment in a line: Myzus persicae leaf dip method (capsicum leaves). To be noted: foliar, third instar nymphs, 72 h after release, dead and moribund combined, compared to untreated control, read-out: Percent mortality. Here is the method: The leaf dip method was used for testing, wherein the required quantity of the test compounds were weighed and dissolved in a surfactant solution, kept on a Vortex at 2000 rpm with zirconia beads for 90 min for proper mixing and then diluted with 0.01% Triton-X solution to the desired test concentration. Capsicum leaves were dipped in the solution for 10 seconds, shade dried for 20 min and then the leaves were kept in glass units with the petiole dipped in water. Known numbers of third instar nymphs were released into the glass units and then kept in the plant growth chambers at a temperature of 25° C. and relative humidity of 70%. Observations on dead, moribund and living nymphs were recorded at 72 h after the release. Percent mortality was calculated by combining dead and moribund nymphs and comparing the result to the one of the untreated control. The compounds 9 14 16 22 23 50 71 104 and 131 were showing efficacy higher than 70 percent mortality @ 300 PPM.

A further test deals with Bemisia tabaci. The experiment in a line: Bemisia tabaci leaf dip method (cotton leaves). To be noted: foliar, freshly emerged adults, 72 h after release, dead and moribund combined, compared to untreated control, read-out: Percent mortality. Here is the method: The leaf dip method was used for testing, wherein the required quantity of the test compounds were weighed and dissolved in surfactant solution, kepton a Vortex at 2000 rpm with zirconia beads for 90 min for proper mixing and then diluted with 0.01% Triton-X solution to the desired test concentration. Cotton leaves were dipped in the solution for 10 seconds, shade dried for 20 min and then the leaves were kept in glass units with the petiole dipped in water. Known numbers of freshly emerged adults were released and kept in the plant growth chamber at a temperature of 25° C. and relative humidity of 70%. Observations on dead, moribund and living adults were recorded at 72 h after the release. Percent mortality was calculated by combining dead and moribund adults and comparing the result to the one of the untreated control.

Another test relates to Helicoverpa armigera. Nature of the test: Helicoverpa armigera diet incorporation method. The following applies: third instar larvae, 96 h after release, dead and moribund combined, compared to untreated control, read-out: Percent mortality. Here is the method:
Diet incorporation method was used, in which the required quantity of test compounds were weighed and dissolved in a surfactant solution, kept on vortex for 90 min for proper mixing, then was diluted with water to the desired test concentrations. The solutions were incorporated into semi-synthetic diet when the temperature reached approximately 50° C. in the bioassay containers. The diet and solution was stirred thoroughly for properly mixing and then left to cool for 30 min. The solidified diet was cut into equal pieces, and then each piece was transferred into one cell of the bio-assay trays. A single third starved instar larva was released into each of these cells of the bioassay trays and each tray was covered with a lid. The bio-assay trays were kept under laboratory conditions at a temperature of 25° C. and relative humidity of 70%. Observations on dead, moribund and alive larvae were recorded at 96 h after the release of the larvae. Percent mortality was calculated by combining dead and moribund larvae and comparing the result to the one of the untreated control.

The subject of another test is Spodoptera litura. The experiment in a line: Spodoptera litura diet incorporation method. To be noted: third instar larvae, 96 h after release, dead and moribund combined, compared to untreated control, read-out: Percent mortality. Here is the method:
Diet incorporation method was used, in which the required quantity of test compounds were weighed and dissolved in surfactant solution, kept on vortex for 90 min for proper mixing, then diluted with water to the desired test concentrations. The solutions were incorporated into semi-synthetic diet when the temperature reached approximately 50° C. in the bioassay containers. The diet and solution was stirred thoroughly for properly mixing and was left to cool for 30 min. The solidified diet was cut into equal pieces, and then each piece was transferred into one cell of the bio-assay trays. A single starved third instar larva was released into each of these cells of the bioassay trays and the tray was covered with a lid. The bio-assay trays were kept under laboratory conditions at a temperature of 25° C. and relative humidity of 70%. Observations on dead, moribund and alive larvae were recorded at 96 h after the release of the larvae. Percent mortality was calculated by combining dead and moribund larvae and comparing the result to the one of the untreated control.

As usually defined, the mortality is the share of the test organisms that died. Regarding `CCSc1nn2c(C)cc(C)nc2c1-c1nc2cc(C(F)(F)F)cnc2n1C` [Compound 9, 2-(2-(Ethylthio)-5,7-dimethylpyrazolo[1,5-a]pyrimidin-3-yl)-3-methyl-6-(trifluoromethyl)-3H-imidazo[4,5-b]pyridine], the mortality at 300 ppm in the test with Plutella xylostella and in the test with Myzus persicae was above 70% each time.

Regarding `CCSc1nn2cccnc2c1-c1nc2cc(C(F)(F)F)cnc2n1C` [Compound 14, 2-(2-(Ethylthio)pyrazolo[1,5-a]pyrimidin-3-yl)-3-methyl-6-(trifluoromethyl)-3H-imidazo[4,5-b]pyridine], the mortality at 300 ppm in the test on Myzus persicae was above 70%.

With `CCS(=O)(=O)c1nn2cccnc2c1-c1nc2cc(C(F)(F)F)cnc2n1C` [Compound 16, 2-(2-(Ethylsulfonyl)pyrazolo[1,5-a]pyrimidin-3-yl)-3-methyl-6-(trifluoromethyl)-3H-imidazo[4,5-b]pyridine], the mortality at 300 ppm in the test with Myzus persicae is above 70%.

In the case of `CCSc1nn2cccnc2c1-c1nc2cc(C(F)(F)F)ncc2n1C` [Compound 22, 2-(2-(Ethylthio)pyrazolo[1,5-a]pyrimidin-3-yl)-3-methyl-6-(trifluoromethyl)-3H-imidazo[4,5-c]pyridine], the mortality at 300 ppm in the test on Plutella xylostella, in the test with Myzus persicae and with Bemisia tabaci was above 70% throughout.

As to `CCS(=O)(=O)c1nn2cccnc2c1-c1nc2cc(C(F)(F)F)ncc2n1C` [Compound 23, 2-(2-(Ethylsulfonyl)pyrazolo[1,5-a]pyrimidin-3-yl)-3-methyl-6-(trifluoromethyl)-3H-imidazo[4,5-c]pyridine], the mortality at 300 ppm in the test with Myzus persicae was above 70%.

For `CCS(=O)(=O)c1nn2c(-c3cc(Cl)cc(Cl)c3)ccnc2c1-c1nc2cc(C(F)(F)F)cnc2n1C` [Compound 26, 2-(7-(3,5-Dichlorophenyl)-2-(ethylsulfonyl)pyrazolo[1,5-a]pyrimidin-3-yl)-3-methyl-6-(trifluoromethyl)-3H-imidazo[4,5-b]pyridine], the mortality at 300 ppm with Helicoverpa armigera, in the test on Plutella xylostella and in the test on Spodoptera litura was above 70% each time.

In the case of `CCS(=O)(=O)c1nn2cc(Cl)cnc2c1-c1nc2cc(C(F)(F)F)cnc2n1C` [Compound 50, 2-(6-Chloro-2-(ethylsulfonyl)pyrazolo[1,5-a]pyrimidin-3-yl)-3-methyl-6-(trifluoromethyl)-3H-imidazo[4,5-b]pyridine], the mortality at 300 ppm in the test on Plutella xylostella and with Myzus persicae was above 70% each time.

In the case of `CCS(=O)(=O)c1nn2cc(Br)cnc2c1-c1nc2cc(C(F)(F)F)cnc2n1C` [Compound 71, 2-(6-Bromo-2-(ethylsulfonyl)pyrazolo[1,5-a]pyrimidin-3-yl)-3-methyl-6-(trifluoromethyl)-3H-imidazo[4,5-b]pyridine], the mortality at 300 ppm with Plutella xylostella and with Myzus persicae was above 70% throughout.

As for `CCS(=O)(=O)c1nn2cc(-c3ccc(OC(F)(F)F)cc3)cnc2c1-c1nc2cc(C(F)(F)F)cnc2n1C` [Compound 83, 2-(2-(Ethylsulfonyl)-6-(4-(trifluoromethoxy)phenyl)pyrazolo[1,5-a]pyrimidin-3-yl)-3-methyl-6-(trifluoromethyl)-3H-imidazo[4,5-b]pyridine], the mortality at 300 ppm in the test on Helicoverpa armigera, with Plutella xylostella and in the test with Spodoptera litura was above 70% in each case.

With `CCSc1nn2c(-c3ccc(OC(F)(F)C(F)F)cc3)ccnc2c1-c1nc2cc(C(F)(F)F)cnc2n1C` [Compound 87, 2-(2-(Ethylthio)-7-(4-(1,1,2,2-tetrafluoroethoxy)phenyl)pyrazolo[1,5-a]pyrimidin-3-yl)-3-methyl-6-(trifluoromethyl)-3H-imidazo[4,5-b]pyridine], the mortality at 300 ppm in the test on Helicoverpa armigera, with Plutella xylostella and with Spodoptera litura was above 70% each time.

Consider `CCS(=O)(=O)c1nn2c(-c3ccc(OC(F)(F)C(F)F)cc3)ccnc2c1-c1nc2cc(C(F)(F)F)cnc2n1C` [Compound 90, 2-(2-(Ethylsulfonyl)-7-(4-(1,1,2,2-tetrafluoroethoxy)phenyl)pyrazolo[1,5-a]pyrimidin-3-yl)-3-methyl-6-(trifluoromethyl)-3H-imidazo[4,5-b]pyridine], for which the mortality at 300 ppm in the test on Helicoverpa armigera, with Plutella xylostella and in the test with Spodoptera litura was above 70% throughout.

`CCSc1nn2c(-c3ccc(OC(F)(F)C(F)F)cc3)ccnc2c1-c1nc2cc(C(F)(F)F)ncc2n1C` [Compound 93, 2-(2-(Ethylthio)-7-(4-(1,1,2,2-tetrafluoroethoxy)phenyl)pyrazolo[1,5-a]pyrimidin-3-yl)-3-methyl-6-(trifluoromethyl)-3H-imidazo[4,5-c]pyridine]: the mortality at 300 ppm in the test on Helicoverpa armigera, in the test with Plutella xylostella and in the test on Spodoptera litura was above 70% throughout.

For the compound `CCS(=O)(=O)c1nn2c(-c3cc(F)cc(F)c3)ccnc2c1-c1nc2cc(C(F)(F)F)cnc2n1C` [Compound 101, 2-(7-(3,5-Difluorophenyl)-2-(ethylsulfonyl)pyrazolo[1,5-a]pyrimidin-3-yl)-3-methyl-6-(trifluoromethyl)-3H-imidazo[4,5-b]pyridine], the mortality at 300 ppm in the test with Helicoverpa armigera, in the test on Plutella xylostella and with Spodoptera litura was above 70% in each case.

In the case of `CCS(=O)(=O)c1nn2c(-c3cc(F)cc(Cl)c3)ccnc2c1-c1nc2cc(C(F)(F)F)cnc2n1C` [Compound 103, 2-(7-(3-Chloro-5-fluorophenyl)-2-(ethylsulfonyl)pyrazolo[1,5-a]pyrimidin-3-yl)-3-methyl-6-(trifluoromethyl)-3H-imidazo[4,5-b]pyridine], the mortality at 300 ppm in the test on Helicoverpa armigera, with Plutella xylostella and in the test on Spodoptera litura was above 70% each time.

On to `CCS(=O)(=O)c1nn2c(-c3ccc(Cl)c(Cl)c3)ccnc2c1-c1nc2cc(C(F)(F)F)cnc2n1C` [Compound 104, 2-(7-(3,4-Dichlorophenyl)-2-(ethylsulfonyl)pyrazolo[1,5-a]pyrimidin-3-yl)-3-methyl-6-(trifluoromethyl)-3H-imidazo[4,5-b]pyridine], for which the mortality at 300 ppm with Helicoverpa armigera, in the test with Plutella xylostella and with Myzus persicae was above 70% each time.

For the compound `CCS(=O)(=O)c1nn2c(-c3ccc(Cl)c(F)c3)ccnc2c1-c1nc2cc(C(F)(F)F)cnc2n1C` [Compound 118, 2-(7-(4-Chloro-3-fluorophenyl)-2-(ethylsulfonyl)pyrazolo[1,5-a]pyrimidin-3-yl)-3-methyl-6-(trifluoromethyl)-3H-imidazo[4,5-b]pyridine], the mortality at 300 ppm in the test with Helicoverpa armigera, in the test on Plutella xylostella and in the test on Spodoptera litura was above 70% in each case.

With `CCSc1nn2c(-c3ccc(Cl)c(F)c3)ccnc2c1-c1nc2cc(C(F)(F)F)ncc2n1C` [Compound 119, 2-(7-(4-Chloro-3-fluorophenyl)-2-(ethylthio)pyrazolo[1,5-a]pyrimidin-3-yl)-3-methyl-6-(trifluoromethyl)-3H-imidazo[4,5-c]pyridine], the mortality at 300 ppm in the test with Plutella xylostella and with Bemisia tabaci was above 70% each time.

For the compound `CCSc1nn2c(C)ccnc2c1-c1nc2cc(C(F)(F)F)cnc2n1C` [Compound 131, 2-(2-(Ethylthio)-7-methylpyrazolo[1,5-a]pyrimidin-3-yl)-3-methyl-6-(trifluoromethyl)-3H-imidazo[4,5-b]pyridine], the mortality at 300 ppm with Plutella xylostella and in the test on Myzus persicae was above 70% in each case.
